System: 354836-022-R-J1-PDC multicell spheroid viability
Test: Anticancer human tumor 354836-022-R-J1-PDC patient-derived head and neck squamous cell carcinoma cell line growth inhibition [PI3K]
Settings: for viability, T/C: stronger effect = lower value
In short: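 Combination activity was assessed by viability in multicellular tumor spheroids carrying HUVEC and MSC components. Agents were tested with PI3K inhibitors from a Cmax-based top dose (or 10 microM) downward in half-log increments.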

[1] = curve of first compound, second compound 0.00316 µM
[2] = curve of first compound, second compound 0.01 µM
[3] = curve of first compound, second compound 0.0316 µM
[4] = curve of first compound, second compound 0.1 µM
[5] = curve of first compound, second compound 0.316 µM
[6] = curve of first compound, second compound 1 µM
[7] = second compound 0.00316 µM, first compound 0.000316 µM
[8] = second compound 0.00316 µM, first compound 0.001 µM
[9] = second compound 0.00316 µM, first compound 0.00316 µM
[10] = second compound 0.00316 µM, first compound 0.01 µM
[11] = second compound 0.00316 µM, first compound 0.0316 µM
[12] = second compound 0.00316 µM, first compound 0.1 µM
[13] = second compound 0.01 µM, first compound 0.000316 µM
[14] = second compound 0.01 µM, first compound 0.001 µM
[15] = second compound 0.01 µM, first compound 0.00316 µM
[16] = second compound 0.01 µM, first compound 0.01 µM
[17] = second compound 0.01 µM, first compound 0.0316 µM
[18] = second compound 0.01 µM, first compound 0.1 µM
[19] = second compound 0.0316 µM, first compound 0.000316 µM
[20] = second compound 0.0316 µM, first compound 0.001 µM
[21] = second compound 0.0316 µM, first compound 0.00316 µM
[22] = second compound 0.0316 µM, first compound 0.01 µM
[23] = second compound 0.0316 µM, first compound 0.0316 µM
[24] = second compound 0.0316 µM, first compound 0.1 µM
[25] = second compound 0.1 µM, first compound 0.000316 µM
[26] = second compound 0.1 µM, first compound 0.001 µM
[27] = second compound 0.1 µM, first compound 0.00316 µM
[28] = second compound 0.1 µM, first compound 0.01 µM
[29] = second compound 0.1 µM, first compound 0.0316 µM
[30] = second compound 0.1 µM, first compound 0.1 µM
[31] = second compound 0.316 µM, first compound 0.000316 µM
[32] = second compound 0.316 µM, first compound 0.001 µM
[33] = second compound 0.316 µM, first compound 0.00316 µM
[34] = second compound 0.316 µM, first compound 0.01 µM
[35] = second compound 0.316 µM, first compound 0.0316 µM
[36] = second compound 0.316 µM, first compound 0.1 µM
[37] = second compound 1 µM, first compound 0.000316 µM
[38] = second compound 1 µM, first compound 0.001 µM
[39] = second compound 1 µM, first compound 0.00316 µM
[40] = second compound 1 µM, first compound 0.01 µM
[41] = second compound 1 µM, first compound 0.0316 µM
[42] = second compound 1 µM, first compound 0.1 µM
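Note: spheroids exposed to agents for seven days before the viability read.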

Structure (SMILES): CC1(C)CCC(Nc2ncc(C(F)(F)F)c(-c3c[nH]c4c(P(C)(C)=O)c(C#N)ccc34)n2)CN1 (stereo unspecified)
- viability, T/C (compound 0.0316 µM): 21.9% [middle of 4 runs]
- viability, T/C (compound 0.1 µM): 19.9% [middle of 4 runs]
- viability, T/C (compound 0.316 µM): 20.8% [middle of 4 runs]
- viability, T/C (compound 1 µM): 21.9% [middle of 4 runs]
- viability, T/C (compound 3.16 µM): 32% [middle of 4 runs]
- viability, T/C (compound 10 µM): 2.79% [middle of 4 runs]
- IC50 (curve of compound): < 31.6 nM

Structure (SMILES): CC(C)n1nc(-c2ccc3oc(N)nc3c2)c2c(N)ncnc21 + CC(Nc1ccc2c(c1)OCCn1cc(N3C(=O)OCC3C(F)F)nc1-2)C(N)=O
- IC50 [1]: 13.9 nM
- IC50 [2]: 11.5 nM
- IC50 [3]: 7.62 nM
- IC50 [4]: 10.6 nM
- IC50 [5]: 5.01 nM
- IC50 [6]: 1.86 nM
- viability, T/C [7]: 99.9%
- viability, T/C [8]: 77%
- viability, T/C [9]: 80.6%
- viability, T/C [10]: 53.9%
- viability, T/C [11]: 35.2%
- viability, T/C [12]: 12.7%
- viability, T/C [13]: 104%
- viability, T/C [14]: 76%
- viability, T/C [15]: 74.5%
- viability, T/C [16]: 51.3%
- viability, T/C [17]: 37.8%
- viability, T/C [18]: 13.1%
- viability, T/C [19]: 90.2%
- viability, T/C [20]: 78.8%
- viability, T/C [21]: 59.2%
- viability, T/C [22]: 50.5%
- viability, T/C [23]: 25.9%
- viability, T/C [24]: 9.5%
- viability, T/C [25]: 74.1%
- viability, T/C [26]: 81.6%
- viability, T/C [27]: 71.3%
- viability, T/C [28]: 49.4%
- viability, T/C [29]: 25.4%
- viability, T/C [30]: 6.95%
- viability, T/C [31]: 60.3%
- viability, T/C [32]: 75.7%
- viability, T/C [33]: 54%
- viability, T/C [34]: 37.7%
- viability, T/C [35]: 22.2%
- viability, T/C [36]: 6.64%
- viability, T/C [37]: 57.5%
- viability, T/C [38]: 54.8%
- viability, T/C [39]: 45.9%
- viability, T/C [40]: 34.8%
- viability, T/C [41]: 19.4%
- viability, T/C [42]: 5.83%

Structure (SMILES): Cn1ncnc1[C@H]1c2n[nH]c(=O)c3cc(F)cc(c23)N[C@@H]1c1ccc(F)cc1 + CC(Nc1ccc2c(c1)OCCn1cc(N3C(=O)OCC3C(F)F)nc1-2)C(N)=O
- IC50 [1]: > 100 nM
- IC50 [2]: > 100 nM
- IC50 [3]: > 100 nM
- IC50 [4]: > 100 nM
- IC50 [5]: > 100 nM
- IC50 [6]: > 100 nM
- viability, T/C [7]: 87.4%
- viability, T/C [8]: 97.1%
- viability, T/C [9]: 91.6%
- viability, T/C [10]: 101%
- viability, T/C [11]: 120%
- viability, T/C [12]: 89.8%
- viability, T/C [13]: 88.4%
- viability, T/C [14]: 83.4%
- viability, T/C [15]: 105%
- viability, T/C [16]: 92.6%
- viability, T/C [17]: 88.3%
- viability, T/C [18]: 84.3%
- viability, T/C [19]: 83%
- viability, T/C [20]: 89.8%
- viability, T/C [21]: 95%
- viability, T/C [22]: 111%
- viability, T/C [23]: 101%
- viability, T/C [24]: 75.5%
- viability, T/C [25]: 87%
- viability, T/C [26]: 104%
- viability, T/C [27]: 89.9%
- viability, T/C [28]: 89.1%
- viability, T/C [29]: 97.8%
- viability, T/C [30]: 70.3%
- viability, T/C [31]: 69.1%
- viability, T/C [32]: 81.8%
- viability, T/C [33]: 74.7%
- viability, T/C [34]: 72.6%
- viability, T/C [35]: 78.8%
- viability, T/C [36]: 60.4%
- viability, T/C [37]: 58%
- viability, T/C [38]: 63%
- viability, T/C [39]: 61.8%
- viability, T/C [40]: 56.8%
- viability, T/C [41]: 71.9%
- viability, T/C [42]: 53.4%

Reference: PubChem BioAssay AID1963981 (Molecular Pharmacology Branch, DTP, NCI, 2024)
